The values below come from the RepoRT retention time repository (doi:10.1021/acs.analchem.1c00972).

Molecules are shown by their SMILES.

Data set [1] can be described thus: RP, Waters ACQUITY UPLC BEH C18, 100 × 1 mm, 1.7 µm, 50 °C, 0.3 mL/min, estimated dead time 0.17 min; A: water + 10 mM ammonium bicarbonate; B: 10% water + 90% methanol + 10 mM ammonium bicarbonate; gradient (min/%B) 0/0 15/100 21/100 22/0 30/0. The conditions noted are these: stereoisomer not certain.
Data set [2] can be described thus: RP, Waters ACQUITY UPLC BEH C18, 100 × 1 mm, 1.7 µm, 50 °C, 0.3 mL/min, estimated dead time 0.17 min; A: water + 0.1% formic acid + 20 mM ammonium formate; B: methanol + 0.1% formic acid + 20 mM ammonium formate; gradient (min/%B) 0/0 15/100 21/100 22/0 30/0. Particulars: stereoisomer not certain.

As to `CN(C)S(=O)(=O)c1ccc(N)cc1` [4-Amino-N,N-dimethylbenzenesulfonamide], the LC retention time is 8.01 min in data set [1] and 7.95 min in data set [2].
For `CC(C)Nc1nc(NC(C)C)[nH]c(=O)n1` [Propazine-2-hydroxy], in that order: 12.2 min and 9.88 min.
Turning to `CCCCC(CC)COP(=O)(O)OCC(CC)CCCC` (configuration not stated) [Bis(2-ethylhexyl)phosphate], the LC retention time in data set [1] and in data set [2] was 17.2 min throughout.
As for `c1ccc2n[nH]nc2c1` [1H-Benzotriazole], the LC retention time in data set [1] is 6.66 min; in data set [2], 7.88 min.
For `COc1cc(OC)nc(N)n1` [2-Amino-4,6-dimethoxypyrimidine], in that order: 8.74 min and 7.19 min.
For `COc1ccc(CCN(C)CCCC(C#N)(c2ccc(OC)c(OC)c2)C(C)C)cc1OC` (configuration not stated) [Verapamil], in that order: 15.9 min and 12.4 min.
With `CCCCOC(=O)N(C)SN(C)C(=O)Oc1cccc2c1OC(C)(C)C2` [Furathiocarb], the LC retention time in data set [1] was 17.1 min; in data set [2] it was 16.7 min.
For `CCCCOC(=O)CCCCCCCCC(=O)OCCCC` [Dibutyl sebacate], the LC retention time is 18.5 min in data set [1] and 18.1 min in data set [2].
For `CCC1OC(=O)C(C)C(OC2CC(C)(OC)C(O)C(C)O2)C(C)C(OC2OC(C)CC(N(C)C)C2O)C(C)(OC)CC(C)C(=O)C(C)C(O)C1(C)O` (configuration not stated) [Clarithromycin], in that order: 16.6 min and 14.1 min.
Take `OC(Cc1ccccc1Cl)(Cn1cncn1)C1(Cl)CC1` (configuration not stated) [Prothioconazole-desthio]: the LC retention time in data set [1] was 15.3 min; in data set [2] it was 15 min.
For the molecule `CCOC(=O)C1(c2ccccc2)CCN(C)CC1` [Meperidine], the LC retention time in data set [1] was 14.2 min; in data set [2], 9.63 min.
Regarding `COCCc1ccc(OCC(O)CNC(C)C)cc1` (configuration not stated) [Metoprolol], the LC retention time was 12.4 min in data set [1] and 9.58 min in data set [2].
For `OC(Cn1cncn1)(Cn1cncn1)c1ccc(F)cc1F` [fluconazole], in that order: 9.58 min and 9.47 min.
For `Nc1ncnc2nc[nH]c12` [Adenine], in that order: 2.55 min and 5.28 min.
For `CCOC(=O)C(Cl)Cc1cc(-n2nc(C)n(C(F)F)c2=O)c(F)cc1Cl` (configuration not stated) [Carfentrazone-ethyl], in that order: 15.8 min and 15.4 min.
As for `NC(=O)N1c2ccccc2C2OC2c2ccccc21` (configuration not stated) [Carbamazepine-10,11-epoxide], the LC retention time in data set [1] is 11 min; in data set [2] it was 10.9 min.
For `CC1(C)CCC2(C(=O)O)CCC3(C)C(=CCC4C5(C)CCC(O)C(C)(CO)C5CCC43C)C2C1` (configuration not stated) [Hederagenin], in that order: 15.9 min and 17.2 min.
For `CNC(=O)N(C)c1nnc(C(C)(C)C)s1` [Tebuthiuron], in that order: 12.1 min and 11.9 min.
For `CSC(=O)c1cccc2nnsc12` [Acibenzolar-S-methyl], in that order: 14 min and 13.7 min.
With `COc1ccc(C(=O)c2ccccc2)c(O)c1` [Benzophenone-3], the LC retention time in data set [1] is 15.3 min; in data set [2], 15 min.
For `CNCCCC(C#N)(c1ccc(OC)c(OC)c1)C(C)C` (configuration not stated) [D617], in that order: 12.4 min and 10.8 min.
Consider `CCN(CC)c1ccc2c(C)cc(=O)oc2c1` [7-Diethylamino-4-methylcoumarin], for which the values for the LC retention time in data set [1] and in data set [2] were 14.7 min and 14.4 min, respectively.
For `CC(=O)N(C)N(C(=O)C(=O)N(C)C)c1ccccc1` [AMDOPH], in that order: 9.52 min and 9.42 min.
For `O=C(C1CCCCC1)N1CC(=O)N2CCc3ccccc3C2C1` (configuration not stated) [Praziquantel], in that order: 14.3 min and 14 min.
For `CCCOP(=S)(OCCC)SCC(=O)N1CCCCC1C` (configuration not stated) [Piperophos], in that order: 16.6 min and 16.3 min.
In the case of `CC1CC2C3CC(F)C4=CC(=O)C=CC4(C)C3C(O)CC2(C)C1(O)C(=O)CO` (configuration not stated) [Paramethasone], the figures for the LC retention time in data set [1] and in data set [2] were 13.5 min and 13.2 min, respectively.
For `CCN1CCCC1CNC(=O)c1cc(S(N)(=O)=O)ccc1OC` (stereo not drawn) [(s)-(-)-Sulpiride], in that order: 10.3 min and 6.03 min.
For `CCCCCCCCn1sccc1=O` [2-Octyl-4-isothiazolin-3-one], in that order: 15.3 min and 15 min.
For `C#CC1(OC(C)=O)CCC2C3CCC4=CC(=NO)CCC4C3CCC21CC` (configuration not stated) [Norgestimate], in that order: 16.6 min and 16.4 min.
As to `CCCc1nc2c(C)cc(-c3nc4ccccc4n3C)cc2n1Cc1ccc(-c2ccccc2C(=O)O)cc1` [Telmisartan], the LC retention time was 14.6 min in data set [1] and 14.2 min in data set [2].
On to `O=NN1CCOCC1` [N-Nitrosomorpholine], for which the LC retention time in data set [1] was 3.78 min; in data set [2] it was 3.69 min.
For `CCCSc1ccc2nc(NC(=O)OC)[nH]c2c1` [Albendazole], in that order: 14.2 min and 13.1 min.
For `O=C(O)c1ccc(Cl)cc1Cl` [2,4-Dichlorobenzoic acid], in that order: 7.64 min and 12.7 min.
As to `CC(C)C(N)C(=O)OCC(CO)OCn1cnc2c(=O)[nH]c(N)nc21` (configuration not stated) [Valganciclovir], the LC retention time in data set [1] was 7.16 min; in data set [2], 5.17 min.
For `Clc1cccc(Cl)c1NC1=NCCN1` [Clonidine], in that order: 10.2 min and 7.02 min.
As for `CC1(C)OC2CC3C4CCC5=CC(=O)C=CC5(C)C4C(O)CC3(C)C2(C(=O)CO)O1` (configuration not stated) [Desonide], the LC retention time is 13.9 min in data set [1] and 13.6 min in data set [2].
Consider `COc1ccc2c(c1OC)C(=O)OC2C1c2c(cc3c(c2OC)OCO3)CCN1C` (configuration not stated) [Noscapin], for which the LC retention time in data set [1] is 14.8 min; in data set [2], 9.81 min.
For `COP(=S)(S)OC` [Dimethyldithiophosphate], in that order: 2.81 min and 2.01 min.
For the molecule `CN1CCCC(n2nc(Cc3ccc(Cl)cc3)c3ccccc3c2=O)CC1` (configuration not stated) [Azelastine], the LC retention time was 16.3 min in data set [1] and 12.9 min in data set [2].
Turning to `CNC(=O)Oc1cccc2c1OC(C)(C)C2O` (configuration not stated) [3-Hydroxycarbofuran], the LC retention time in data set [1] is 9.47 min; in data set [2], 9.35 min.
With `CCCCCCCCSCCOCCO` [2(2(octylsulfanyl)ethoxy)ethanol], the LC retention time in data set [1] was 16.9 min; in data set [2] it was 16.5 min.
For `Cc1[nH]c(=O)n(C(C)(C)C)c(=O)c1Cl` [Terbacil], the LC retention time in data set [1] was 12 min; in data set [2], 11.8 min.
For `COP(=O)(OC)OC(Br)C(Cl)(Cl)Br` (configuration not stated) [Naled], in that order: 13.6 min and 13.3 min.
For `CC(=O)c1cc(C(C)(C)C)cc2c1CCC2(C)C` [Celestolide], in that order: 17.9 min and 17.5 min.
Turning to `Cn1cnc2c1c(=O)[nH]c(=O)n2C` [Theobromine], the LC retention time in data set [1] is 5.86 min; in data set [2] it was 5.9 min.
As to `COP(=S)(OC)SCn1nnc2ccccc2c1=O` [Azinphos methyl], the LC retention time was 13.6 min in data set [1] and 13.4 min in data set [2].
For `CC(C)(C)NC(=O)C1CCC2C3CCC4NC(=O)C=CC4(C)C3CCC12C` (configuration not stated) [Finasteride], in that order: 14.9 min and 14.6 min.
For `CC1CCN(CCCC(=O)c2ccc(F)cc2)CC1` [Melperon], in that order: 15.4 min and 10 min.
For `CCC(C)C(=O)OC1CC(C)C=C2C=CC(C)C(CCC3CC(O)CC(=O)O3)C21` (configuration not stated) [Lovastatin], in that order: 17.2 min and 16.8 min.
Take `CC(C)(C)c1ccc(C(=O)CCCN2CCC(OC(c3ccccc3)c3ccccc3)CC2)cc1` [Ebastin]: the LC retention time is 18.8 min in data set [1] and 15.9 min in data set [2].
Regarding `COC1CC(OC2CCC3(C)C(CCC4C3CCC3(C)C(C5=CC(=O)OC5)C(OC(C)=O)CC43O)C2)OC(C)C1O` (configuration not stated) [Oleandrin], the figures for the LC retention time in data set [1] and in data set [2] were 14.7 min and 14.4 min, respectively.
On to `O=C(Nc1ccc(F)cc1F)c1cccnc1Oc1cccc(C(F)(F)F)c1` [Diflufenican], for which the figures for the LC retention time in data set [1] and in data set [2] were 16.7 min and 16.3 min, respectively.
Take `COc1ccc(C2Sc3ccccc3N(CCN(C)C)C(=O)C2OC(C)=O)cc1` (configuration not stated) [Diltiazem]: the LC retention time in data set [1] was 15.5 min; in data set [2], 11.8 min.
As for `O=C(O)COc1ccc(Cl)cc1Cl` [2,4-Dichlorophenoxyacetic acid], the LC retention time was 10.6 min in data set [1] and 12.9 min in data set [2].
Consider `C=C1CCC2C(C=C(C)C(=O)C3(O)CC(C)C(O)C3C1O)C2(C)C` (configuration not stated) [Lathyrol], for which the figures for the LC retention time in data set [1] and in data set [2] were 15 min and 14.7 min, respectively.
For `CCc1ccc(CCOc2ccc(CC3SC(=O)NC3=O)cc2)nc1` (configuration not stated) [Pioglitazone], in that order: 13.3 min and 11.1 min.
